Reference: patent publication US7824668B2, “Compositions for attracting stink bugs” (Cotton Incorporated, priority 2006, dated 2010)

What was measured:
Type in all cases: in vivo
Euschistus tristigmus = test: Tedders trap field capture of Euschistus tristigmus, pheromone with vs without geraniol synergist; conditions: soybean field; 160 mg geraniol + 200 mg methyl (2E,4Z)-decadienoate vs 200 mg methyl (2E,4Z)-decadienoate alone; Pr>t 0.04
Protocol: An experiment was carried out near Starkville, Oktibbeha County in Mississippi to study the response of Euschistus tristigmus in a crop field to a pheromone synergist. The crop field was a soybean field bordered on two sides by woods. Geraniol was used as a synergist with methyl (2E,4Z)-decadienoate, a pheromone for Euschistus tristigmus. Tedders traps were used in the experiment. Each trap was baited with 160 mg geraniol and 200 mg methyl (2E,4Z)-decadienoate and each control trap was baited with 200 mg methyl (2E,4Z)-decadienoate. The control trap contained no geraniol or other synergists. The trapped adult insects of Euschistus tristigmus were collected on a daily basis and the total number of trapped insects was counted. Statistical analysis was done using the Least Squares means separation from the SAS GLM procedure.

Euschistus servus = test: Tedders trap field capture of Euschistus servus, pheromone with vs without geraniol synergist; conditions: 160 mg geraniol + 200 mg methyl (2E,4Z)-decadienoate vs pheromone alone
Protocol: An experiment was carried out near Starkville, Oktibbeha County in Mississippi to study the response of Euschistus servus to a pheromone synergist. Geraniol was used as a synergist with methyl (2E,4Z)-decadienoate, a pheromone for Euschistus servus. Tedders traps were used in the experiment. Each treatment trap was baited with 160 mg geraniol and 200 mg methyl (2E,4Z)-decadienoate and each control trap was baited with 200 mg methyl (2E,4Z)-decadienoate. The control trap contained no geraniol or any other synergist. The trapped adult insects of Euschistus servos were collected on a daily basis and their total numbers were counted. Statistical analysis was done using the Least Squares means separation from the SAS GLM procedure.

Euschistus species = test: Tedders trap field capture of Euschistus species, pheromone with vs without geraniol synergist; conditions: soybean field, Monticello, Ark.; 160 mg geraniol + 200 mg methyl (2E,4Z)-decadienoate vs pheromone alone; Pr>t 0.09
Protocol: An experiment was carried out in Monticello, Ark. to study the response of Euschistus species in a soybean field to a pheromone synergist. Geraniol was used as a synergist to methyl (2E,4Z)-decadienoate, which is a pheromone for both Euschistus species. […] traps were used in the experiment. Each treatment trap was baited with 160 mg geraniol and 200 mg methyl (2E,4Z)-decadienoate and each control trap was baited with 200 mg methyl (2E,4Z)-decadienoate. The control traps contained no geraniol or any other synergist. The trapped adult insects of Euschistus species were collected on a daily basis and their total numbers were counted. Statistical analysis was done using the Least Squares means separation from the SAS GLM procedure.

CC(C)=CCC/C(C)=C/CO [geraniol, E-(3,7)-Dimethyl-2,6-octadien-1-ol]
increase in the number of captured Euchistus tristigmus (Euschistus tristigmus): ~75% | increase in the number of captured bugs (Euschistus servus; crepe myrtle field, Pr>t 0.51): ~72% | increase in the number of captured bugs (Euschistus servus; field of mixed crops of plum and okra, Pr>t 0.02): ~92% | increase in the number of captured bugs (Euschistus servus; new-peach field, Pr>t 0.05): ~251% | increase in the number of captured bugs (Euschistus servus; old-peach field, Pr>t 0.02): ~122% | increase in the number of captured bugs (Euschistus servus; soybean field, Pr>t 0.61): ~14% | increase in the number of captured bugs (Euschistus species): ~269%
